From the supplement of paper PMC8967900

How the values were obtained:
Assay in all cases: selective drug sensitivity score (sDSS, relative to normal bone marrow) (sDSS (score)); higher = more potent and effective on the cell line relative to normal bone marrow cells
Settings in all cases: 72 h
697 = system: 697
ALL-PO = system: ALL-PO
ALL-SIL = system: ALL-SIL
CCRF-HSB2 = system: CCRF-HSB2
COG-LL-317 = system: COG-LL-317
COG-LL-332h = system: COG-LL-332h
COG-LL-394h = system: COG-LL-394h
HAL-01 = system: HAL-01
JURKAT = system: JURKAT
KARPAS-45 = system: KARPAS-45
KASUMI-2 = system: KASUMI-2
MHH-CALL-2 = system: MHH-CALL-2
MHH-CALL-4 = system: MHH-CALL-4
MOLT-16 = system: MOLT-16
NALM-6 = system: NALM-6
PEER = system: PEER
RCH-ACV = system: RCH-ACV
SEM cells = system: SEM cells
SUP-B15 = system: SUP-B15
TANOUE = system: TANOUE
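Note: ALL cell lines in 384-well plates, five doses spanning 10,000-fold, each plate scaled between vehicle and 100 µmol/L benzalkonium chloride controls, sDSS an adapted area-under-curve metric.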

CCN(CC)CCCC(C)Nc1c2ccc(Cl)cc2nc2ccc(OC)cc12 (stereo not given) [Mepacrine] (top concentration 50000 nM)
selective drug sensitivity score 697: -3.7 | selective drug sensitivity score (ALL-PO): 0.2 | selective drug sensitivity score (ALL-SIL): -7.3 | selective drug sensitivity score (CCRF-HSB2): -4.8 | selective drug sensitivity score (COG-LL-317): -0.5 | selective drug sensitivity score (COG-LL-332h): -0.4 | selective drug sensitivity score (COG-LL-394h): -5.7 | selective drug sensitivity score (HAL-01): -3.5 | selective drug sensitivity score (JURKAT): -7.7 | selective drug sensitivity score (KARPAS-45): -0.8 | selective drug sensitivity score (KASUMI-2): -9.5 | selective drug sensitivity score (MHH-CALL-2): -5.6 | selective drug sensitivity score (MHH-CALL-4): -8.4 | selective drug sensitivity score (MOLT-16): -0.8 | selective drug sensitivity score (NALM-6): -5.5 | selective drug sensitivity score (PEER): -5.9 | selective drug sensitivity score (RCH-ACV): -4.5 | selective drug sensitivity score (SEM cells): -0.1 | selective drug sensitivity score (SUP-B15): -1.1 | selective drug sensitivity score (TANOUE): -10.8

COc1nc(N)nc2c1ncn2[C@@H]1O[C@H](CO)[C@@H](O)[C@@H]1O [Nelarabine] (top concentration 10000 nM)
selective drug sensitivity score 697: 1.58 | selective drug sensitivity score (ALL-PO): 0.08 | selective drug sensitivity score (ALL-SIL): -2.82 | selective drug sensitivity score (CCRF-HSB2): 1.88 | selective drug sensitivity score (COG-LL-317): 4.58 | selective drug sensitivity score (COG-LL-332h): 2.78 | selective drug sensitivity score (COG-LL-394h): -9.72 | selective drug sensitivity score (HAL-01): -5.82 | selective drug sensitivity score (JURKAT): -0.12 | selective drug sensitivity score (KARPAS-45): -9.92 | selective drug sensitivity score (KASUMI-2): -10.2 | selective drug sensitivity score (MHH-CALL-2): -4.22 | selective drug sensitivity score (MHH-CALL-4): -3.12 | selective drug sensitivity score (MOLT-16): -7.22 | selective drug sensitivity score (NALM-6): -4.82 | selective drug sensitivity score (PEER): -5.52 | selective drug sensitivity score (RCH-ACV): 1.98 | selective drug sensitivity score (SEM cells): -10.2 | selective drug sensitivity score (SUP-B15): 5.78 | selective drug sensitivity score (TANOUE): -10.2

Nc1nc2[nH]cnc2c(=S)[nH]1 [Thioguanine] (top concentration 10000 nM)
selective drug sensitivity score 697: 8.84 | selective drug sensitivity score (ALL-PO): 11.2 | selective drug sensitivity score (ALL-SIL): 12.8 | selective drug sensitivity score (CCRF-HSB2): 14.7 | selective drug sensitivity score (COG-LL-317): 23 | selective drug sensitivity score (COG-LL-332h): 14.5 | selective drug sensitivity score (COG-LL-394h): 2.44 | selective drug sensitivity score (HAL-01): 9.44 | selective drug sensitivity score (JURKAT): 12.4 | selective drug sensitivity score (KARPAS-45): 15 | selective drug sensitivity score (KASUMI-2): 2.54 | selective drug sensitivity score (MHH-CALL-2): 11.9 | selective drug sensitivity score (MHH-CALL-4): 4.34 | selective drug sensitivity score (MOLT-16): 15.2 | selective drug sensitivity score (NALM-6): 10.2 | selective drug sensitivity score (PEER): 13.1 | selective drug sensitivity score (RCH-ACV): 14.3 | selective drug sensitivity score (SEM cells): 13 | selective drug sensitivity score (SUP-B15): 19.2 | selective drug sensitivity score (TANOUE): 5.54

Cc1cccc(-c2[nH]c(CNc3ccccc3F)nc2-c2ccc3ncnn3c2)n1 [Vactosertib (TEW-7197)] (top concentration 2500 nM)
selective drug sensitivity score 697: -0.5 | selective drug sensitivity score (ALL-PO): -0.5 | selective drug sensitivity score (ALL-SIL): -0.5 | selective drug sensitivity score (CCRF-HSB2): 5.1 | selective drug sensitivity score (COG-LL-317): -0.3 | selective drug sensitivity score (COG-LL-332h): -0.2 | selective drug sensitivity score (COG-LL-394h): -0.5 | selective drug sensitivity score (HAL-01): 0 | selective drug sensitivity score (JURKAT): 0 | selective drug sensitivity score (KARPAS-45): -0.5 | selective drug sensitivity score (KASUMI-2): -0.5 | selective drug sensitivity score (MHH-CALL-2): -0.3 | selective drug sensitivity score (MHH-CALL-4): 7.2 | selective drug sensitivity score (MOLT-16): 10.7 | selective drug sensitivity score (NALM-6): -0.5 | selective drug sensitivity score (PEER): -0.5 | selective drug sensitivity score (RCH-ACV): -0.5 | selective drug sensitivity score (SEM cells): 4.5 | selective drug sensitivity score (SUP-B15): 9 | selective drug sensitivity score (TANOUE): -0.5

Cc1c(N)nc([C@H](CC(N)=O)NC[C@H](N)C(N)=O)nc1C(=O)N[C@H](C(=O)N[C@H](C)[C@@H](O)[C@H](C)C(=O)N[C@H](C(=O)NCCc1nc(-c2nc(C(=O)NCCC[S+](C)C)cs2)cs1)[C@@H](C)O)[C@@H](O[C@@H]1O[C@@H](CO)[C@@H](O)[C@H](O)[C@@H]1O[C@H]1O[C@H](CO)[C@@H](O)[C@H](OC(N)=O)[C@@H]1O)c1c[nH]cn1 [Bleomycin] (top concentration 10000 nM)
selective drug sensitivity score 697: 4.74 | selective drug sensitivity score (ALL-PO): -1.76 | selective drug sensitivity score (ALL-SIL): -1.36 | selective drug sensitivity score (CCRF-HSB2): -0.06 | selective drug sensitivity score (COG-LL-317): 5.14 | selective drug sensitivity score (COG-LL-332h): 8.04 | selective drug sensitivity score (COG-LL-394h): 2.24 | selective drug sensitivity score (HAL-01): 8.44 | selective drug sensitivity score (JURKAT): -0.96 | selective drug sensitivity score (KARPAS-45): 1.94 | selective drug sensitivity score (KASUMI-2): 6.44 | selective drug sensitivity score (MHH-CALL-2): 3.14 | selective drug sensitivity score (MHH-CALL-4): 4.54 | selective drug sensitivity score (MOLT-16): 4.54 | selective drug sensitivity score (NALM-6): 5.74 | selective drug sensitivity score (PEER): -0.66 | selective drug sensitivity score (RCH-ACV): 7.54 | selective drug sensitivity score (SEM cells): 11.1 | selective drug sensitivity score (SUP-B15): 6.44 | selective drug sensitivity score (TANOUE): -1.86

CC(C)(C)c1cc(NC(=O)Nc2ccc(-c3cn4c(n3)sc3cc(OCCN5CCOCC5)ccc34)cc2)no1 [Quizartinib] (top concentration 1000 nM)
selective drug sensitivity score 697: 0.98 | selective drug sensitivity score (ALL-PO): 14.1 | selective drug sensitivity score (ALL-SIL): 3.48 | selective drug sensitivity score (CCRF-HSB2): -0.12 | selective drug sensitivity score (COG-LL-317): -0.02 | selective drug sensitivity score (COG-LL-332h): 2.78 | selective drug sensitivity score (COG-LL-394h): -0.32 | selective drug sensitivity score (HAL-01): 3.18 | selective drug sensitivity score (JURKAT): -1.52 | selective drug sensitivity score (KARPAS-45): 3.68 | selective drug sensitivity score (KASUMI-2): -1.52 | selective drug sensitivity score (MHH-CALL-2): 2.38 | selective drug sensitivity score (MHH-CALL-4): -1.52 | selective drug sensitivity score (MOLT-16): 1.88 | selective drug sensitivity score (NALM-6): 1.38 | selective drug sensitivity score (PEER): -0.02 | selective drug sensitivity score (RCH-ACV): 2.08 | selective drug sensitivity score (SEM cells): 20.7 | selective drug sensitivity score (SUP-B15): 0.38 | selective drug sensitivity score (TANOUE): -1.52

Cc1sc2c(c1C)C(c1ccc(Cl)cc1)=N[C@@H](CC(=O)OC(C)(C)C)c1nnc(C)n1-2 [JQ1] (top concentration 10000 nM)
selective drug sensitivity score 697: 9.72 | selective drug sensitivity score (ALL-PO): 4.62 | selective drug sensitivity score (ALL-SIL): -1.08 | selective drug sensitivity score (CCRF-HSB2): 0.72 | selective drug sensitivity score (COG-LL-317): 6.62 | selective drug sensitivity score (COG-LL-332h): -3.08 | selective drug sensitivity score (COG-LL-394h): -2.88 | selective drug sensitivity score (HAL-01): 6.12 | selective drug sensitivity score (JURKAT): -0.48 | selective drug sensitivity score (KARPAS-45): 9.32 | selective drug sensitivity score (KASUMI-2): -5.08 | selective drug sensitivity score (MHH-CALL-2): 9.62 | selective drug sensitivity score (MHH-CALL-4): 8.52 | selective drug sensitivity score (MOLT-16): 8.82 | selective drug sensitivity score (NALM-6): 4.32 | selective drug sensitivity score (PEER): -1.88 | selective drug sensitivity score (RCH-ACV): 12.3 | selective drug sensitivity score (SEM cells): 11.4 | selective drug sensitivity score (SUP-B15): 3.02 | selective drug sensitivity score (TANOUE): -7.48

Nc1nccc(-c2c(-c3ccc(F)cc3)ncn2C2CCCCC2)n1 (top concentration 10000 nM)
selective drug sensitivity score 697: 4.8 | selective drug sensitivity score (ALL-PO): 3 | selective drug sensitivity score (ALL-SIL): 1.5 | selective drug sensitivity score (CCRF-HSB2): 3.4 | selective drug sensitivity score (COG-LL-317): 4.4 | selective drug sensitivity score (COG-LL-332h): 3.1 | selective drug sensitivity score (COG-LL-394h): 0 | selective drug sensitivity score (HAL-01): 1 | selective drug sensitivity score (JURKAT): 0.1 | selective drug sensitivity score (KARPAS-45): 0.6 | selective drug sensitivity score (KASUMI-2): 12.6 | selective drug sensitivity score (MHH-CALL-2): 4.1 | selective drug sensitivity score (MHH-CALL-4): 0 | selective drug sensitivity score (MOLT-16): 2.6 | selective drug sensitivity score (NALM-6): 0 | selective drug sensitivity score (PEER): 1.4 | selective drug sensitivity score (RCH-ACV): 13.5 | selective drug sensitivity score (SEM cells): 1.2 | selective drug sensitivity score (SUP-B15): 2.4 | selective drug sensitivity score (TANOUE): 0

Nc1cc(F)ccc1NC(=O)/C=C/c1cnn(C/C=C/c2ccccc2)c1 [RGFP966] (top concentration 10000 nM)
selective drug sensitivity score 697: 13.2 | selective drug sensitivity score (ALL-PO): 3.64 | selective drug sensitivity score (ALL-SIL): 12.4 | selective drug sensitivity score (CCRF-HSB2): 15.9 | selective drug sensitivity score (COG-LL-317): 16.6 | selective drug sensitivity score (COG-LL-332h): 15.7 | selective drug sensitivity score (COG-LL-394h): 2.34 | selective drug sensitivity score (HAL-01): 12.7 | selective drug sensitivity score (JURKAT): 11.2 | selective drug sensitivity score (KARPAS-45): 14.6 | selective drug sensitivity score (KASUMI-2): 8.24 | selective drug sensitivity score (MHH-CALL-2): 7.84 | selective drug sensitivity score (MHH-CALL-4): 2.94 | selective drug sensitivity score (MOLT-16): 18.2 | selective drug sensitivity score (NALM-6): 13.3 | selective drug sensitivity score (PEER): 10.2 | selective drug sensitivity score (RCH-ACV): 14.8 | selective drug sensitivity score (SEM cells): 18.7 | selective drug sensitivity score (SUP-B15): 18 | selective drug sensitivity score (TANOUE): -0.26
